Legend:
[1] = tested on: SLE/CLE CD4+ T-cell clones; assay: T-cell clone reactivity (BrdU, HLA-matched B-LCLs pulsed with peptide); type: cell-based, human; conditions: clones from one SLE and one CLE patient
Description: PBMCs were purified, from EDTA-treated blood, on Ficoll-Hypaque (Pharmacia Fine Chemicals, Uppsala, Sweden) were incubated (10^5 cells/well) in 96-well-flat-bottom-microplates (BD) in T cell-medium (RPMI 1640, 10% heat-inactivated human serum, HS, Gibco), 2 mM L-glutamine, 10 U/mL penicillin, and 100 μg/mL streptomycin), with/without peptides. We performed assays on fresh cells, within 1-to-3 hours from collection, or on PBMCs frozen in 90% FCS-10%DMSO, whose viability we assessed by Trypan blue exclusion, at inverted microscope. Recovery of live cells was between 65 and 85 % of the frozen number. At day3 and 5, BrdU was added (1 μg/mL). BrdU-incorporation was detected by APC-labeled anti-BrdU antibody (BD Pharmingen), after surface staining by flow cytometry. Internal control for T-cell viability and proliferation was PHA treatment (2 μg/mL). SI for proliferation was calculated by dividing percent of BrdU-staining in the presence of each peptide used to stimulate cells by percent of BrdU-staining in the absence of peptide stimulation. SI for proliferation was considered positive when>3. This cut-off was obtained by calculating the mean+2DS [1.5 + 2 (0.6)] (of the stimulation indexes calculated as above) of the proliferation of HD. […]
Assays were repeated twice with each patient. […] Ror-ɣt and Bcl-6 were measured by intracellular staining and flow cytometry, after 48 hours culture with LL37 or control antigen, and were analyzed on CD38highCD4 T-cells. […]
PBMCs were stimulated (2x10^6 cells/mL) with LL37 for 7 days and re-stimulated (10 days) with LL37-pulsed (10 µg/mL) autologous-ɣ-irradiated-(30Gy)-PBMCs in T-cell medium in the presence of human/recombinant (hr)IL-2 (Boehringer-Mannheim, Indian, USA). T cell lines-specificity was analyzed by using peptide-pulsed (0.1-10 µg/mL) autologous-irradiated PBMCs (30Gy) or lymphoblastoid-cell-lines (B-LCLs) (150Gy, 33). […]
analyzed by flow-cytometry (after staining by BrdU-detection kit, BD Pharmingen). […] Clones reactivity and HLA-restriction were analyzed using HLA-matched-homozigous B-LCLs, pulsed with […]

CD4 T-cells = assay: Peptide-MHC-tetramer staining of PBMC after seven-day culture; type: cell-based, human; conditions: for peptide-MHC-tetramer staining in HLA-matched HD: HLA-matched HD PBMCs; for peptide-MHC-tetramer staining at remission: SLE2, SLE22 and CLE6 PBMCs at remission
Description: Peptide-MHC-tetramer staining of T-cell lines/clones and blood T-cells
Peptide-MHC-tetramers (Table S4) were from ProImmune, (UK), TC Metrix, (CH), Benaroya,
(USA) and ImmunAware (Denmark). Staining was performed for 40 minutes at 37°C, followed by
staining for CD4 (4°C, 20 minutes). Before flow cytometry-acquisition, cells were labelled with
PercP-conjugated 7-AAD to exclude dead cells. […]

## LLGDFFRKSKEKIGKEFKRIVQRIKDFLRNLVPRTES [LL37, native LL37, antimicrobial peptide, 37 aa]
[1]
  T-cell clone reactivity: Some of the T-cell clones proliferated exclusively after stimulation with native LL37
CD4 T-cells; seven-day culture
  peptide-MHC-tetramer staining in HLA-matched HD: did not stain significantly
CD4 T-cells
  peptide-MHC-tetramer staining at remission: not staining for native-LL37

## LLGDFFR(cit)KSKEKIGKEFKR(cit)IVQR(cit)IKDFLR(cit)NLVPR(cit)TES [cit-LL37, citrullinated LL37 (citrullinated at all five arginin positions)]
[1]
  T-cell clone reactivity: Other clones proliferated to both native LL37 and cit-LL37
CD4 T-cells; seven-day culture
  peptide-MHC-tetramer staining in HLA-matched HD: did not stain significantly
CD4 T-cells
  peptide-MHC-tetramer staining at remission: still observed some staining upon stimulation with cit-LL37
CD4 T-cells; three patients (SLE2, SLE22, CLE6), seven-day culture
  frequency of peptide-MHC-tetramer positive T-cells, cit-LL37 versus native-LL37: higher upon culture of PBMCs with cit-LL37 compared to native-LL37

— paper PMC7125190, “Native/citrullinated LL37-specific T-cells help autoantibody production in Systemic Lupus Erythematosus” (Scientific Reports, 2020)
